These molecules were tested on HEK293 cells (assay: Preliminary screening as DNA vectors, GFP transfection of HEK293 cells). Details: amino lipid/DOPE liposome with 75 ng plasmid DNA (psin-EGFP-IRES-Puro); number of GFP-expressing cells divided by total nuclei (Hoechst).
Type: cell-based
Experimental: Cell line: HEK293 cells (ATCC CRL-1573™)
Medium: DMEM supplemented with 10% fetal bovine serum (Invitrogen)
Mode of screening: cell transfection on 96-well plates
Detection (readout): percentage of the number of GFP fluorescent cells relative to the total number of cells (the total number of cells was measured using nucleus dye Hoechst—see FIG. 2). Lipofectamine2000 (Invitrogen) was used as positive control, according to the manufacturer's instructions.
Method: an 8-channel pipette was used for sample addition. The contents shown were for a single well of a 96-well flat plate.
1. The compound (0.01 mmol) prepared in Example 1 was dissolved in 1 mL of anhydrous ethanol. After ultrasonically dissolved, 10 μL of the resultant amino lipid solution in ethanol was taken and mixed with 5 μL of DOPE solution in ethanol (0.01 m), and then to the obtained mixture was added 35 μL of 0.2M sodium acetate buffer (pH 5.6), and 50 μL of liposome solution was prepared by vortex at a constant rotating speed for 30 s. 4 μL was taken from the 50 μL liposome solution and added to 46 μL of 0.02M sodium acetate buffer (pH 5.6), and the final liposome solution was formed by vortex at a constant rotating speed for 30 s. 5 μL was taken from the final liposome solution and mixed with 75 ng plasmid DNA (psin-EGFP-IRES-Puro, Clontech) dissolved in 5 μL of 0.02 M sodium acetate buffer, and was allowed to stay at room temperature for 30 min to form a lipid/DNA transfection complex.
2. 10 μL of the lipid/DNA transfection complex was incubated at room temperature for 30 min, followed by addition of 90 μL of fresh resuspended cells (3-5×10^4 cells) and mixing with a pipette. 100 μL of cells+lipid/DNA complex was transferred to separate wells of a 96-well culture plate immediately, and placed in an incubator containing 5% CO2 at 37° C.
3. Hoechst33258 (Invitrogen) was added at a final concentration of 0.2 μg/mL to the cells 20 to 24 hours after initial cell transfection, and cultured in darkness at 37° C. for 15 min. Afterwards, the cells were washed once with a PBS solution, and then added with medium for culture for 20 to 24 h.
4. The cells were placed in a high-throughput confocal microscope (Molecular Devices ImageXpress), and four visual fields of the image of the cells were captured for each well, and images at three laser wavelengths were captured for each sample: bright field images of cells (FIG. 2(a) and FIG. 2(b)), Hoechst-staining images showing total nuclei (FIG. 2(c) and FIG. 2(d)) and GFP images showing success in transfection with the plasmid DNA and the expression of GFP (FIG. 2(e) and FIG. 2(f)). MetaXpress software was used to separately count the cells in the Hoechst-staining images and GFP images, and then the number of cells expressing GFP was divided by the total number of nuclei to give the absolute cell transfection efficiency. The absolute transfection efficiency was calculated as follows: […]

| SMILES | Absolute DNA transfection efficiency in HEK293 cells |
| --- | --- |
| CCCCCCCCCCCSc1nc(NCCN2CCN(C)CC2)nc(SCCCCCC)n1 [S6S11 D5] | 32.7% |
| CCCCCCCCCCCSc1nc(NCCCN(C)C)nc(SCCCCCC)n1 [S6S11 D6] | 32.1% |
| CCCCCCCCCCCSc1nc(NCCN(CC)CC)nc(SCCCCCC)n1 [S6S11 D7] | 10.1% |
| CCCCCCCCCCCSc1nc(NCCCN2CCOCC2)nc(SCCCCCC)n1 [S6S11 D8] | 4.5% |
| CCCCCCCCCCCSc1nc(NCCCN2CCN(C)CC2)nc(SCCCCCC)n1 [S6S11 D9] | 16.8% |
| CCCCCCCCCCCSc1nc(NCC2CCN(C)CC2)nc(SCCCCCC)n1 [S6S11 D10] | 38.1% |
| CCCCCCCCCCCCSc1nc(NCCN(C)C)nc(SCCCCCC)n1 [S6S12 D1] | 6.3% |
| CCCCCCCCCCCCSc1nc(NCCN2CCOCC2)nc(SCCCCCC)n1 [S6S12 D2] | 5.0% |
| CCCCCCCCCCCCSc1nc(NCCN2CCCC2)nc(SCCCCCC)n1 [S6S12 D3] | 4.3% |
| CCCCCCCCCCCCSc1nc(NCCN2CCCCC2)nc(SCCCCCC)n1 [S6S12 D4] | 3.0% |
| CCCCCCCCCCCCSc1nc(NCCN2CCN(C)CC2)nc(SCCCCCC)n1 [S6S12 D5] | 28.8% |
| CCCCCCCCCCCCSc1nc(NCCCN(C)C)nc(SCCCCCC)n1 [S6S12 D6] | 13.6% |
| CCCCCCCCCCCCSc1nc(NCCN(CC)CC)nc(SCCCCCC)n1 [S6S12 D7] | 6.6% |
| CCCCCCCCCCCCSc1nc(NCCCN2CCOCC2)nc(SCCCCCC)n1 [S6S12 D8] | 7.5% |
| CCCCCCCCCCCCSc1nc(NCCCN2CCN(C)CC2)nc(SCCCCCC)n1 [S6S12 D9] | 9.4% |
| CCCCCCCCCCCCSc1nc(NCC2CCN(C)CC2)nc(SCCCCCC)n1 [S6S12 D10] | 24.4% |

| SMILES | Absolute DNA transfection efficiency in HEK293 cells |
| --- | --- |
| CCCCCCCCCCCCCCSc1nc(NCCN(C)C)nc(SCCCCCC)n1 [S6S14 D1] | 8.3% |
| CCCCCCCCCCCCCCSc1nc(NCCN2CCOCC2)nc(SCCCCCC)n1 [S6S14 D2] | 11.1% |
| CCCCCCCCCCCCCCSc1nc(NCCN2CCCC2)nc(SCCCCCC)n1 [S6S14 D3] | 9.2% |
| CCCCCCCCCCCCCCSc1nc(NCCN2CCCCC2)nc(SCCCCCC)n1 [S6S14 D4] | 12.0% |
| CCCCCCCCCCCCCCSc1nc(NCCN2CCN(C)CC2)nc(SCCCCCC)n1 [S6S14 D5] | 18.6% |
| CCCCCCCCCCCCCCSc1nc(NCCCN(C)C)nc(SCCCCCC)n1 [S6S14 D6] | 21.9% |
| CCCCCCCCCCCCCCSc1nc(NCCN(CC)CC)nc(SCCCCCC)n1 [S6S14 D7] | 4.7% |
| CCCCCCCCCCCCCCSc1nc(NCCCN2CCOCC2)nc(SCCCCCC)n1 [S6S14 D8] | 2.3% |
| CCCCCCCCCCCCCCSc1nc(NCCCN2CCN(C)CC2)nc(SCCCCCC)n1 [S6S14 D9] | 4.1% |
| CCCCCCCCCCCCCCSc1nc(NCC2CCN(C)CC2)nc(SCCCCCC)n1 [S6S14 D10] | 53.3% |
| CCCCCCCCCCCCCCCSc1nc(NCCN(C)C)nc(SCCCCCC)n1 [S6S15 D1] | 5.5% |
| CCCCCCCCCCCCCCCSc1nc(NCCN2CCOCC2)nc(SCCCCCC)n1 [S6S15 D2] | 8.4% |
| CCCCCCCCCCCCCCCSc1nc(NCCN2CCCC2)nc(SCCCCCC)n1 [S6S15 D3] | 14.5% |
| CCCCCCCCCCCCCCCSc1nc(NCCN2CCCCC2)nc(SCCCCCC)n1 [S6S15 D4] | 7.9% |
| CCCCCCCCCCCCCCCSc1nc(NCCN2CCN(C)CC2)nc(SCCCCCC)n1 [S6S15 D5] | 13.7% |

— patent US20230123334A1, “AMINO LIPID COMPOUND, PREPARATION METHOD THEREFOR, AND APPLICATION THEREOF” (SHENZHEN SHENXIN BIOTECHNOLOGY CO., LTD., priority 2020, published 2023)
